# Measured values as given in article PMC6920897, “Interactions of 7,8-Dihydroxyflavone with Serum Albumin as well as with CYP2C9, CYP2C19, CYP3A4, and Xanthine Oxidase Biotransformation Enzymes” (Biomolecules, 2019).
# Values joined by “and” are separate entries in the source; they are usually repeats but may differ in a detail not shown here. Equal values may be shown once. Read-outs that look alike come from different tables or passages of the source.
# How the values were obtained:
# [1] = cited from earlier work
# [2] = molecular target: T1, CYP2C9 (Homo sapiens, UniProt P11712); experiment: CYP2C9 in vitro enzyme assay (diclofenac to 4'-hydroxydiclofenac)
# T1 sequence (P11712 whole entry): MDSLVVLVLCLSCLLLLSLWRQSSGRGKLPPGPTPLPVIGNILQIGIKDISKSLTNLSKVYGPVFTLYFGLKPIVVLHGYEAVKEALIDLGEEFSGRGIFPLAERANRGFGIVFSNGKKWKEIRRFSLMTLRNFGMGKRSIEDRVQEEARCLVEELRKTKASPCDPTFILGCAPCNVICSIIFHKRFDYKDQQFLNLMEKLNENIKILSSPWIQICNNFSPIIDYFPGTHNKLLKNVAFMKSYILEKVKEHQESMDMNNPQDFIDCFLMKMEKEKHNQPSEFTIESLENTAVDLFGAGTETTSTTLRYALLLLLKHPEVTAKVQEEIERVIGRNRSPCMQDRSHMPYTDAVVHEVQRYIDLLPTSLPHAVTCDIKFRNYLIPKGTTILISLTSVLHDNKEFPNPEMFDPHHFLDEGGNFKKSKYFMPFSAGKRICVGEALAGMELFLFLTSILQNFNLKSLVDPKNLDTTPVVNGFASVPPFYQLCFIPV
# Procedure: The inhibitory action of DHF on CYP2C9 was investigated as described earlier. In the enzyme-catalyzed reaction, diclofenac is oxidized to 4′-hydroxydiclofenac. […] The incubates (with 200 μL final volume) contained CypExpress 2C9 reagent (8 mg/mL) including also the NADPH (nicotinamide adenine dinucleotide phosphate, reduced) generating system, diclofenac (15 μM), and increasing concentrations of DHF (0, 15, 30, 45, and 60 μM) in potassium phosphate buffer (50 mM, pH 7.5). The incubation was carried out in a thermomixer (80 min, 700 rpm, 30 °C). The reaction was started by the addition of the enzyme and stopped by the addition of 100 μL of ice-cold methanol; then, the samples were centrifuged (10 min, 14,000× g, 25 °C). Diclofenac and 4′-hydroxydiclofenac were analyzed in the supernatants by HPLC (see Section 2.5).
# Diclofenac and 4′-hydroxydiclofenac (CYP2C9 assay) were quantified as reported previously. The samples were driven through a Phenomenex Security Guard (C8, 4.0 × 3.0 mm) guard column (Torrance, CA, USA) linked to an Eclipse C8 (150 × 4.6 mm, 5 μm; Agilent, Santa Clara, CA, USA) analytical column. The separation was carried out at 1.0 mL/min flow rate at room temperature. During the isocratic elution, the mobile phase contained acetonitrile and 6 mM orthophosphoric acid (52:48 v/v%). Diclofenac and 4′-hydroxydiclofenac were detected at 275 nm.
# [3] = system: HSA; conditions: cited from earlier work
# [4] = molecular target: T1, CYP2C9; conditions: same model as this study; cited from earlier work
# [5] = parameters: method as in PMID 29295929; conditions: mice, cited from earlier work
# [6] = molecular target: T2, xanthine oxidase (XO; from bovine milk) (Bos taurus, UniProt P80457); experiment: Xanthine oxidase in vitro enzyme assay (6-mercaptopurine to 6-thiouric acid); assay type: biochemical; conditions: substrate 6-mercaptopurine 5.0 μM
# T2 construct: xanthine oxidase (XO; from bovine milk); purchased Sigma-Aldrich; host or cells: bovine milk
# T2 sequence (P80457 whole entry): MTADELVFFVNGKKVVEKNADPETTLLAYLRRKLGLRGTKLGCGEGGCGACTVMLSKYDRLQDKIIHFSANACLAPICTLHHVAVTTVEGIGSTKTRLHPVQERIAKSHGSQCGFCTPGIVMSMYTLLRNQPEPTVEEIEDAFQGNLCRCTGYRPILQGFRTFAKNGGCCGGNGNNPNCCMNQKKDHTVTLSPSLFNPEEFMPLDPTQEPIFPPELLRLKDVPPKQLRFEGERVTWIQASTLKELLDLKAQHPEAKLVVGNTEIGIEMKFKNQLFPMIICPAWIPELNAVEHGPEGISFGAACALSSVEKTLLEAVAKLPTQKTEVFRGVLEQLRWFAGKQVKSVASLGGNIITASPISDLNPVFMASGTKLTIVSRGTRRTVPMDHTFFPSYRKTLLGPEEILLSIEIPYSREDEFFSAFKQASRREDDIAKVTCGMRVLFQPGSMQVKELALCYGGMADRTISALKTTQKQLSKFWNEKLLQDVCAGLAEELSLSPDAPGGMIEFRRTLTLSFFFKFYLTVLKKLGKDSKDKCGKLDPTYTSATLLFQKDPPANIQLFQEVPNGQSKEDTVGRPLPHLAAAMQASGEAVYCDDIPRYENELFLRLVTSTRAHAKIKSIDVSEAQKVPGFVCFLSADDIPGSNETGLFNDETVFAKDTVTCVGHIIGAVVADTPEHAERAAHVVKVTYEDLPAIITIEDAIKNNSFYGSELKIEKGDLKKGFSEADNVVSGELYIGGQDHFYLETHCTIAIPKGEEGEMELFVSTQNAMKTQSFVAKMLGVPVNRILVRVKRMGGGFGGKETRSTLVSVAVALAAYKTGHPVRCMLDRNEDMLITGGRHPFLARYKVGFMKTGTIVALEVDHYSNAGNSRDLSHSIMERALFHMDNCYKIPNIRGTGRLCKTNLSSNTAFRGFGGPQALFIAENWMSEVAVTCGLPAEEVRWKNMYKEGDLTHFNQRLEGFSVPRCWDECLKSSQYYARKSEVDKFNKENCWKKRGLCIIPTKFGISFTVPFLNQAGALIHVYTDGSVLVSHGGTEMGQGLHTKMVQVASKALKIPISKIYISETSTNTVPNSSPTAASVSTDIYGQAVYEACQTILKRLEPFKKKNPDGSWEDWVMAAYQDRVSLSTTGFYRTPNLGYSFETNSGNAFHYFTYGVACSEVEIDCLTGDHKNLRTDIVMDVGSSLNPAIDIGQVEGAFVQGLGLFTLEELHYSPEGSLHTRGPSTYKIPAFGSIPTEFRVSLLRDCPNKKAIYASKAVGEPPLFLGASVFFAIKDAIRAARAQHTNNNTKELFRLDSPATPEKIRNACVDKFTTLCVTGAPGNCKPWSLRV
# Procedure: The inhibitory action of DHF on XO was investigated as described earlier [31]. In the enzyme-catalyzed reaction, 6-mercaptopurine is oxidized to 6-thiouric acid. […] The incubates (with 500 μL final volume) contained XO enzyme (0.01 unit/mL), 6-mercaptopurine (5 μM), and increasing concentrations of DHF (0, 5, 10, 15, and 20 μM) in sodium phosphate buffer (50 mM, pH 7.5). Samples were incubated in thermomixer (40 min, 700 rpm, 37 °C). The reaction was started by the addition of the enzyme and stopped by the addition of 30 μL of perchloric acid (6 M). After the samples were vortexed and centrifuged (5 min, 1,4000× g, room temperature), a 300-μL aliquot of the supernatant was transferred into another Eppendorf tube; then, 36 μL of potassium hydroxide (1 M) was added to this fraction. Samples were cooled to 3 °C, then, centrifuged (5 min, 14,000× g, 3°C). 6-mercaptopurine and 6-thiouric acid were quantified in the supernatants by HPLC (see Section 2.5).
# The samples were driven through a Phenomenex SecurityGuard (C18, 4.0 × 3.0 mm) guard column linked to a Phenomenex Gemini-NX C18 (150 × 4.6 mm, 3 μm) analytical column. The eluent contained methanol, acetonitrile, and 0.02 M orthophosphoric acid (4:5:91 v/v%). The isocratic elution was performed at 0.8 mL/min flow rate at room temperature. 6-mercaptopurine and 6-thiouric acid were detected at 334 nm.
# [7] = molecular target: CYP2C19 (Homo sapiens, UniProt P33261); experiment: CYP2C19 in vitro enzyme assay (S-mephenytoin to 4-hydroxymephenytoin); assay type: biochemical
# CYP2C19, sequence (P33261 whole entry): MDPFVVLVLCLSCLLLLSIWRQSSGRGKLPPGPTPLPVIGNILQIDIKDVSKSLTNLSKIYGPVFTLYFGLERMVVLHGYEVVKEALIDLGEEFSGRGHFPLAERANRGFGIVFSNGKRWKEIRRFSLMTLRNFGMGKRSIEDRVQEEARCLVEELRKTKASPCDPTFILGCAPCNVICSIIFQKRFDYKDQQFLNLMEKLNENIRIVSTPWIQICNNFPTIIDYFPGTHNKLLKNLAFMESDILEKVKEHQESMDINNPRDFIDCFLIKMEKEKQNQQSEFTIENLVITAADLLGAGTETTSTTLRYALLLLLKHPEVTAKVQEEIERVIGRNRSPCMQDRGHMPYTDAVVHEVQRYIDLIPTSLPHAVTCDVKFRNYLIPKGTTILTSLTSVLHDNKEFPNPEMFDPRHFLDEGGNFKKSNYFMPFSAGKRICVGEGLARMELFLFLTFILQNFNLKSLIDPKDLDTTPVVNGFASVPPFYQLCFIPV
# Procedure: To study the inhibitory effect of DHF on CYP2C19, S-mephenytoin was used as the substrate. During the enzyme-catalyzed reaction, 4-hydroxymephenytoin is formed. […] The incubation was performed in a thermomixer (120 min, 600 rpm, 30 °C). […] After centrifugation (10 min, 14,000× g, 25 °C), S-mephenytoin and 4-hydroxymephenytoin were quantified in the supernatants by HPLC (see Section 2.5).
# The mobile phase contained acetonitrile, methanol, and sodium phosphate buffer (10 mM, pH 4.55) (20:15:65 v/v%). […] S-mephenytoin and 4-hydroxymephenytoin were detected at 230 nm.
# [8] = system: T3, human serum albumin (HSA); experiment: Fluorescence quenching of HSA by DHF (Stern-Volmer, Hyperquad2006); assay type: binding; conditions: HSA 2 μM, PBS pH 7.4, 25 °C
# T3 construct: purchased Sigma-Aldrich
# Procedure: Fluorescence spectroscopic measurements were carried out using a Hitachi F-4500 fluorescence spectrophotometer (Tokyo, Japan). The binding constant of the DHF–HSA complex was determined by fluorescence quenching, during which increasing amounts of DHF (final concentrations: 0, 0.5, 1.0, 2.0, 3.0, 4.0, 5.0, and 6.0 μM) were added to HSA (2 μM) in phosphate buffered saline (PBS; pH 7.4; containing 8.00 g/L NaCl, 0.20 g/L KCl, 1.81 g/L Na2HPO4 × 2H2O, and 0.24 g/L KH2PO4); then, emission spectra were recorded using 295-nm excitation wavelength (at 25 °C, in the presence of air). DHF-HSA interaction was evaluated using the graphical application of the Stern-Volmer equation [25, 26]:(1) I0/I=[…], where I0 and I are the fluorescence emission intensity of HSA at 340 nm in the absence and presence of DHF, respectively. KSV denotes the Stern–Volmer quenching constant (unit: L/mol), and [Q] is the concentration of DHF (unit: mol/L). Furthermore, the binding constant (K; unit: L/mol) of the DHF–HSA complex was determined by nonlinear fitting applying the Hyperquad2006 software as described elsewhere. […]
# [9] = system: T4, HSA Site II (naproxen); experiment: Ultrafiltration: displacement of Site II marker naproxen from HSA; assay type: binding, human; conditions: naproxen 1.0 μM, HSA 1.5 μM, PBS pH 7.4
# T4 construct: purchased Sigma-Aldrich
# Procedure: Pall Microsep Advance centrifugal devices with a 10-kDa molecular weight cut-off (MWCO) value (VWR; Budapest, Hungary) were applied. […] Before ultrafiltration, the filter units were washed once with 3.0 mL of distilled water and twice with 3.0 mL of PBS; then, samples (with a 2.5 mL volume) were driven through the filters by centrifugation (10 min, 7500× g, fixed-angle rotor, 25 °C). The concentrations of site markers in the filtrates were quantified with HPLC (see Section 2.5). Naproxen was analyzed in the filtrates as described earlier. […] The mobile phase contained acetonitrile and sodium acetate buffer (6.9 mM, pH 4.0) (50:50 v/v%). […] Naproxen was detected at 230 nm.
# [10] = molecular target: T5, CYP3A4 (Homo sapiens, UniProt P08684); experiment: CYP3A4 in vitro enzyme assay (testosterone to 6β-hydroxytestosterone)
# T5 sequence (P08684 whole entry): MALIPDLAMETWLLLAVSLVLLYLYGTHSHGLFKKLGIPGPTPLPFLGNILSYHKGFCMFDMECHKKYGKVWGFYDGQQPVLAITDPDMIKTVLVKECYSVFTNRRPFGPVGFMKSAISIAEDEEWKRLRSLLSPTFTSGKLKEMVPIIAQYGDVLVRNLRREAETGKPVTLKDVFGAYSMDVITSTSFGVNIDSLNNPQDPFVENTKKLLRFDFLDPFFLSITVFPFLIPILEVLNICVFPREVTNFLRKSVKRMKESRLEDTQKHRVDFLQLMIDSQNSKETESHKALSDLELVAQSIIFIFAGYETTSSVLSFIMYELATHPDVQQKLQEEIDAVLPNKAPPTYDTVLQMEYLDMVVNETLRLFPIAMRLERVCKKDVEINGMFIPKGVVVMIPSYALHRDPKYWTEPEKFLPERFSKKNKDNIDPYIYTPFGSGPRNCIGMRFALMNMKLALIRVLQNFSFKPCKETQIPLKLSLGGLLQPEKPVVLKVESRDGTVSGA
# Procedure: The inhibitory effect of DHF on CYP3A4 was investigated as described previously. In the enzyme-catalyzed reaction, testosterone is oxidized to 6β-hydroxytestosterone. […] The incubates (with 200 μL final volume) contained CypExpress 3A4 reagent (15 mg/mL; containing also the NADPH generating system), testosterone (5 μM), NADP^+ (200 μM), G6P (500 μM), and increasing concentrations of DHF (0, 5, 10, 15, and 20 μM) in potassium phosphate buffer (50 mM, pH 7.5). Samples were incubated in thermomixer (180 min, 600 rpm, 30 °C). The reaction was started by the addition of the enzyme and stopped by the addition of 100 μL of ice-cold methanol. After centrifugation (10 min, 14,000× g, 25 °C), testosterone and 6β-hydroxytestosterone were analyzed in the supernatants by HPLC (see Section 2.5).
# Testosterone and 6β-hydroxytestosterone (CYP3A4 assay) were quantified as reported previously. The samples were driven through a Phenomenex Security Guard (C18, 4.0 × 3.0 mm) guard column linked to a Kinetex EVO C18 (150 × 4.6 mm, 5 μm) analytical column (Phenomenex). The mobile phase contained methanol, water, and glacial acetic acid (59:40:1 v/v%). The isocratic elution was performed at 1.2 mL/min flow rate at room temperature. Testosterone and 6β-hydroxytestosterone were detected at 240 nm.
# [11] = system: T6, warfarin-HSA complex (Site I); experiment: Fluorescence-based displacement of warfarin from HSA; assay type: binding, human; conditions: warfarin 1.0 μM, HSA 3.5 μM, DHF 0-10 μM, PBS pH 7.4, λex 317 nm
# T6 construct: purchased Sigma-Aldrich
# Procedure: Ultraviolet (UV)-Vis spectra of DHF were recorded employing a Halo DB-20 spectrophotometer (Dynamica; Dietikon, Switzerland), after which the inner filter effect of DHF was corrected in each experiment based on the following equation [26, 28]:(2) Icorr=Iobs×e^(Aex+ Aem)/2, where Icorr and Iobs indicate the corrected and the measured fluorescence emission intensity, respectively, while Aex and Aem denote the absorption of DHF at the excitation and emission wavelengths used, respectively.
# [12] = system: T7, HSA Site I (warfarin); experiment: Ultrafiltration: displacement of Site I marker warfarin from HSA; assay type: binding, human; conditions: warfarin 1.0 μM, HSA 5.0 μM, PBS pH 7.4
# T7 construct: purchased Sigma-Aldrich
# Procedure: Pall Microsep Advance centrifugal devices with a 10-kDa molecular weight cut-off (MWCO) value (VWR; Budapest, Hungary) were applied. […] Before ultrafiltration, the filter units were washed once with 3.0 mL of distilled water and twice with 3.0 mL of PBS; then, samples (with a 2.5 mL volume) were driven through the filters by centrifugation (10 min, 7500× g, fixed-angle rotor, 25 °C). The concentrations of site markers in the filtrates were quantified with HPLC (see Section 2.5). […] The samples were driven through a Nova-Pak C18 guard column (3.9 × 20 mm, 4 μm; Waters,) and a Nova-Pak C18 analytical column (3.9 × 150 mm, 4 μm; Waters). The mobile phase contained sodium phosphate buffer (25 mM, pH 7.0), methanol, and acetonitrile (70:25:5 v/v%).
# [13] = molecular target: T5, CYP3A4; parameters: method as in PMID 30142539; conditions: same model as this study; cited from earlier work
smiles,measurement,setting,value
"Clc1ccccc1CN1CCc2sccc2C1 [TIC, ticlopidine]",peak plasma concentrations,"[1]; chronic treatment, oral 250 mg twice daily, men",3.4 to 4.1 µM
same,average peak plasma concentrations,"[1]; oral 3 × 100 mg daily, healthy subjects",approximately 3.5 μM
same,peak plasma concentration,[1]; oral single 250 mg dose,1.3 to 2.6 µM
"CC(=O)CC(c1ccccc1)c1c(O)c2ccccc2oc1=O (stereo not shown) [WAR, warfarin, reference compound]",IC50(rel) (IC50 divided by substrate concentration),"[2]; human, 80 min, pH 7.5",2.3
same,binding constant K to HSA,[3]; warfarin-HSA,340000 L/mol
COc1ccc(-c2oc3cc(OC)c(OC)c(O)c3c(=O)c2OC)cc1O [casticin],fold weaker inhibitor of CYP2C9 compared to DHF,[4],1.3 fold
"O=c1cc(-c2ccccc2)oc2c(O)c(O)ccc12 [DHF, 7,8-dihydroxyflavone]",plasma concentrations,[5]; per os 15-50 mg/kg DHF,33 to 192 nM
same,oral bioavailability,[5],approximately 4.5%
same,IC50,[6],11 µM
same,IC50,[7],19 µM
same,IC50(rel) (IC50 divided by substrate concentration),"[7]; human, 120 min, pH 7.5",3.8
same,Stern-Volmer quenching constant KSV,"[8]; λex 295 nm, λem 340 nm",344000 ± 3000 L/mol
same,binding constant K of DHF-HSA complex,[8]; nonlinear fitting with Hyperquad2006,490000 L/mol and 487000 ± 7000 L/mol
same,further fraction of total naproxen in the filtrate,[9]; 10 μM DHF,14%
same,further fraction of total naproxen in the filtrate,[9]; 20 μM DHF,22%
same,IC50,[10],14.5 µM
same,IC50(rel) (IC50 divided by substrate concentration),"[10]; human, 180 min, pH 7.5",2.9
same,IC50,[2],34.5 µM
same,IC50(rel) (IC50 divided by substrate concentration),"[2]; human, 80 min, pH 7.5",2.3
same,α (IC50 of DHF divided by IC50 of positive control),"[2]; human, 80 min, pH 7.5",1.0
same,effect on fluorescence emission signal of warfarin at 379 nm,[11],strongly decreased
same,fraction of total warfarin became unbound,[12]; 10 μM DHF,12%
same,fraction of total warfarin became unbound,[12]; 20 μM DHF,21%
Oc1ccc(/C=C/c2cc(O)cc(O)c2)cc1 [resveratrol],inhibitory effect on CYP3A4 compared to DHF,[13],two-fold stronger inhibitor
"O=c1cc(-c2ccccc2)oc2cc(O)cc(O)c12 [chrysin, 5,7-dihydroxyflavone]",binding constant K to HSA,[3]; chrysin-HSA,340000 L/mol
